Test [1] addresses Dihydroorotate dehydrogenase (quinone), mitochondrial (Mus musculus, UniProt O35435). Nature of the test: Inhibitory concentration tested on enzyme dihydroorotate dehydrogenase in mouse.
The target of test [2] is Dihydroorotate dehydrogenase (quinone), mitochondrial (Rattus norvegicus, UniProt Q63707). The test can be described thus: Inhibitory concentration tested against enzyme dihydroorotate dehydrogenase in rat.

Molecules are shown by their SMILES.

Sequence of Dihydroorotate dehydrogenase (quinone), mitochondrial (Rattus norvegicus, UniProt Q63707) (Q63707 whole entry): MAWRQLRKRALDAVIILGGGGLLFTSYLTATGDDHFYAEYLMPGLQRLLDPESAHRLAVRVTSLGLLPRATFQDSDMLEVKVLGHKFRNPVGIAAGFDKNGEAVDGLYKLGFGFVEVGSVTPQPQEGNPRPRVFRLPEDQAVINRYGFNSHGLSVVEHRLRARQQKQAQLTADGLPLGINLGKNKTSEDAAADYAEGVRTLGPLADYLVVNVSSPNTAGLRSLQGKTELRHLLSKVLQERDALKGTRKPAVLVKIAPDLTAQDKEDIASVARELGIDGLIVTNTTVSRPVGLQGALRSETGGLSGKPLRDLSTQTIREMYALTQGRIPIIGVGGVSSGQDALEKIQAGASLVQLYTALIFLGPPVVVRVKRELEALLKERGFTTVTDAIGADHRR
Sequence of Dihydroorotate dehydrogenase (quinone), mitochondrial (Mus musculus, UniProt O35435) (O35435 whole entry): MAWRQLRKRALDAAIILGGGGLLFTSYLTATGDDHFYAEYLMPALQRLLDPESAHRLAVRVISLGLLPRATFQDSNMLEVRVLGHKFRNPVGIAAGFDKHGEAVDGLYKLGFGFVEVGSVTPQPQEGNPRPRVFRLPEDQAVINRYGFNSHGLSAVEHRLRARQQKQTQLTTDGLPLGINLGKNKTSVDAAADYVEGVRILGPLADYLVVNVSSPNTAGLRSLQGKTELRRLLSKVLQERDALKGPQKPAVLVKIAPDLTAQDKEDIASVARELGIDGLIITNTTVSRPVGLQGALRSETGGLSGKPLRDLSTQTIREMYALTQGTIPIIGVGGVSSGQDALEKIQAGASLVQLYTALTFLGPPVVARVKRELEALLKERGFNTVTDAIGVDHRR

Usually IC50 stands for the concentration that gives 50% inhibition. Low values mean greater potency in that assay, high ones weaker potency in that assay. The molecule `CC=CC(=O)C(C#N)C(=O)Nc1ccc(C(F)(F)F)cc1` (centres undefined) showed an IC50 in test [1] of 0.063 µM. This counts as double-digit nanomolar. As for `N#CC(C(=O)Nc1ccc(C(F)(F)F)cc1)C(=O)c1ccc(C(F)(F)F)cc1` (centres undefined) [2-Cyano-3-hydroxy-3,N-bis-(4-trifluoromethyl-phenyl)-acrylamide], the IC50 in test [2] and in test [1] was over 100 µM throughout. On to `N#CC(C(=O)Nc1ccccc1C(F)(F)F)C(=O)C1CC1` (centres undefined) [(Z)-2-Cyano-3-cyclopropyl-3-hydroxy-N-(2-trifluoromethyl-phenyl)-acrylamide], for which the IC50 in test [2] and in test [1] was over 100 µM throughout. Turning to `CN1CCCC1C(=O)C(C#N)C(=O)Nc1ccc(C(F)(F)F)cc1` (centres undefined) [(Z)-2-Cyano-3-hydroxy-3-(1-methyl-pyrrolidin-2-yl)-N-(4-trifluoromethyl-phenyl)-acrylamide], the IC50 in test [2] and in test [1] was over 100 µM in each case. In the case of `N#CC(C(=O)Nc1ccc(C(F)(F)F)cc1)C(=O)C1CCCN1` (centres undefined) [(Z)-2-Cyano-3-hydroxy-3-pyrrolidin-2-yl-N-(4-trifluoromethyl-phenyl)-acrylamide], the IC50 in test [2] and in test [1] was over 100 µM in each case.

The record behind these values is BindingDB's records for doi:10.1021/jm9604437 (Hoechst Marion Roussel, 1996).
